In patent publication US20240218016A1, “PEPTIDES AND THEIR USE IN THE TREATMENT OF INFLAMMATION” (Shenzhen Institutes of Advanced Technology, priority 2019, published 2024):
Where no end group is shown, it is not given here. [ ]: non-standard residue; d: D form. The star is where a group is joined. Dihydrocaffeoyl = O=C(CCc1ccc(O)c(O)c1)*; Dopa = N[C@@H](Cc1ccc(O)c(O)c1)C(=O)O; Hyp = O=C(O)[C@@H]1C[C@@H](O)CN1

Test system: xylene-induced ear swelling
Test: Mouse ear swelling model (xylene-induced)
Type: in vivo, BALB/c mice
Conditions: for Swelling rate: (right ear weight - left ear weight)/left ear weight x 100, about 0.1 g gel (peptide 0.5 mg/g) or Dex cream on right ear 1 hour before 20 μL xylene, ears taken 40 minutes after xylene, 5 mice per group; for anti-inflammatory effects compared with the other peptides tested: xylene mouse ear swelling, topical gels 0.5 mg/g
Protocol: 35 Health male BALB/c mice with 6-8 weeks old and average body weight of 18-25 g were supplied from Changzhou Cvens Experimental Animal Co., Ltd. and housed and cared for about 1 week prior to the experiment. The housing temperature was around 25 to 27 ° C. with 74% humidity, alternating 12-hour periods of light and darkness, and free access to food and water. The mice were randomly divided into 7 groups as described in Table 5 below, with 5 mice in each group. [table] Dexamethasone acetate cream (Dex cream; 5 mg/10 g (which means that there was 5 mg Dex contained in 10 g of the cream), Fuyuan Pharmaceutical Co. Ltd., Anhui, China) was used as positive control. The left ear of each mouse was used as an autologous control. The right ear of each mouse was treated with the above compounds in the stated concentrations. About 0.1 g of the various gels, and Dex cream were applied to the right ear of mice in each group, both inside and outside. The blank gel base was applied on the ears in the model groups. After 1 hour, 20 μL of xylene (Shanghai Aladdin Bio-Chem Technology Co., Ltd.) was applied to the same ear of each mouse. The mice were sacrificed by cervical dislocation 40 minutes after xylene application. The left and right ears were cut off. An EMS skin biopsy punch with a diameter of 8 mm was used to take a piece of the ear from the same site on both ears. The weights were recorded, and the swelling rate was calculated as a percentage according to the following formula: (right ear weight−left ear weight)/left ear weight×100

Substance	Swelling rate	anti-inflammatory effects compared with the other peptides tested
15 (Dihydrocaffeoyl-AKPS[Dopa][Hyp]T[Dopa][Hyp]K) [compound 15]	63%	–
18 (Dihydrocaffeoyl-AKPS[Dopa][Hyp][Hyp]T[Dopa]K) [compound 18]	57%	–
22 (Dihydrocaffeoyl-KPS[Dopa][Hyp]TA[Hyp]K) [compound 22]	40%	stronger than the other peptide compounds tested
58 (KAKPS[Dopa][Hyp][Hyp]T-dopamine) [compound 58]	43%	stronger than the other peptide compounds tested
